Laboratory results: patent US10350206B2, “Benzyl substituted indazoles as BUB1 inhibitors” (Bayer Pharma Aktiengesellschaft, priority 2014, dated 2019)

Tests used:
[1] = test system: Bub1 kinase (histone 2A phosphorylation); experiment: H2A Formation-Assay (cell-based mechanistic assay, co-treatment with Nocodazole); settings: 16 h, Nocodazole 1 μg/ml together with test compound for 16 h; read-out: Biological Assay 4.1: H2A Formation IC50
Experimental: Biological Assay 4.1: Formation-Assay
Cell-Based Mechanistic Assay: Changes of Phosphorylation Status of Histone 2A by Inhibition of Kinase Activity of Bub1
This assay determines the suppression of histone 2A phosphorylation by a Bub1 kinase inhibitor during co-treatment with Nocodazole. 25000 cells (cells were ordered from ATCC) were seeded in 96 well plate for 5 h at 37° C. Cells were treated with Nocodazole (1 μg/ml) and varying concentrations (between 3 nM and 10 μM) of test compounds for 16h. Cells were fixed (20 min, Fixing solution R&D), washed three times with PBS and blocked with Odyssey blocking buffer before incubating with the primary antibody against phosphorylated H2A (5 μg/ml ABIN482721) overnight at […]. After washing, secondary IRDye-labeled antibody mix with cell stains was added for 1h and washed again with PBS. Plates were scanned with LiCor Odyssey Infrared Imager CLx at 800 nm for P-H2A and at 700 nm for cell stains Draq5/Sapphire. The quotient of 800 nm and 700 nm for Nocodazole only treated cells was set as 100% and the quotient of 800 nm and 700 nm of untreated cells was set as 0%. […] The IC50 values were determined by means of a 4 parameter fit.
Histone H2A is an immediate intracellular substrate of Bub1 kinase. Determination of the phosphorylation status of Histone H2A provides a direct measure of the intracellular activity of Bub1 kinase.

[2] = test system: HeLa human cervical tumor cells; experiment: Proliferation Assay (HeLa+Paclitaxel); type: cell-based; settings: 3 nM paclitaxel, test substance 92 hours; read-out: Biological Assay 3: Proliferation Assay (HeLa + Paclitaxel) IC50

Row | SMILES | IC50 [1] | IC50 [2]
1 | COc1cnc(-c2nn(Cc3c(F)cc(OCCO)cc3F)c3ccccc23)nc1Nc1ccnc(C)c1 [Example 2-1-2, 2-{3,5-difluoro-4-[(3-{5-methoxy-4-[(2-methylpyridin-4-yl)amino]pyrimidin-2-yl}-1H-indazol-1-yl)methyl]phenoxy}ethanol] | 8.7 nM | 350 nM
2 | COc1cnccc1Nc1nc(-c2nn(Cc3c(F)cc(OCCO)cc3F)c3ccccc23)ncc1OC [Example 2-1-3, 2-{3,5-difluoro-4-[(3-{5-methoxy-4-[(3-methoxypyridin-4-yl)amino]pyrimidin-2-yl}-1H-indazol-1-yl)methyl]phenoxy}ethanol] | 43 nM | 63 nM
